# Data reported in patent publication US8637484B2, “Modulation of growth hormone receptor expression and insulin-like growth factor expression” (Antisense Therapeutic Limited, priority 2003, dated 2014).
# How the values were obtained:
# [1] = test system: serum insulin-like growth factor-I; experiment: Serum IGF-I by radioimmunoassay, 1 week pilot study in Balb/C(a) mice; assay type: in vivo, mouse; conditions: for % IGF-I reduction: 30 mg/kg once every 2 days, serum IGF-I at day 7 compared to saline control at day 7
# Protocol: Forty male Balb/C(a) mice weighing 9 to 10 g were placed into cages, 4 animals per cage, and allowed to assimilate into their environment with new littermates ˜1 week prior (Day −7) to the commencement of 1 week study. Mice of this age would be at their maximum growth rate. Their body weights were measured and recorded every second day during this period. When mice weighed 11 g (day −2), a blood sample was collected under anesthesia as described below, and a serum IGF-I assay was performed to determine pre-treatment values and to aid in the assigning of mice to treatment groups in order to reduce animal variability. To obtain the blood sample, the animals were anaesthetized with pentobarbital (50 mg/kg i.p.) and non-fasting blood samples collected exactly 5 minutes later from the retrobulbar plexus through heparinized capillary tubes under light ether anesthesia. The 40 animals were placed into five groups with each group having a similar weight average and similar IGF-I average concentration for the trial.
# Animals (n=8/group) were designated to the following five treatment groups:
# Saline, antisense, mismatch control and octreotide samples were prepared, and coded for blinding. Animals were given a subcutaneous dose of saline every second day, and mismatch control or antisense with administration on days 0, 2, 4, 6. Animals were given twice daily doses of 25 μg octreotide. Animals were housed 4 per cage, for the duration of one week. They had access to a pre-determined quantity of standard mouse food and water at all times throughout the experiment. They were housed in a quiet, temperature- and humidity-maintained environment for the entirety of the study. At day 0 and before treatment on each day or second day, the animals had their body weight and food intake measured, enabling the correct dose of agent to be administered. The animals were monitored closely for any changes in fur, skin, eye, locomotion or other changes in behavior. No problems were observed. Every second day from day −7 to day 7 body weight and food intake were measured.
# On day 7, one day after the last dose of antisense, and/or after the last octreotide dose, the animals were anaesthetized with pentobarbital (50 mg/kg i.p.) and non-fasting blood samples collected exactly 5 minutes later from the retrobulbar plexus through heparinized capillary tubes under light ether anesthesia (as on day −7 and 0).
# At day −2 and day 7, serum IGF-I measurement was done by radioimmunoassay. Serum IGF-I level is the most widely used measure of growth hormone biological activity in human therapy. It is used to measure the efficacy of growth hormone antagonist treatments like Trovert, which block cells' responsiveness to excess growth hormone, and dopamine agonists and octreotide somatostatin […] drugs that block growth hormone secretion from the pituitary.
# growth hormone receptor = experiment: [125I] hGH specific binding assay on liver microsomal membranes of treated mice; assay type: in vivo, mouse
# Protocol: Specific binding assays were carried out with liver tissue using iodinated human growth hormone [^125I] hGH.
# Microsomal membrane preparations were obtained as follows. 400 mg of tissue powder was homogenized in cold homogenizing buffer (50 mM Tris/HCl, 250 mM sucrose, pH 7.4). This was centrifuged at 2000 rpm for 10 min at 3° C. and the supernatant was saved. This was centrifuged again at 15,000 rpm for 20 min. Pellets were resuspended in 0.5 ml of RRA buffer with inhibitor (50 mM Tris, 20 mM MgC12, pH 7.4). Microsomal preparation samples were stored at −80° C. until the specific binding assay.
# The [^125I] hGH specific binding assay was done as follows. Four glass tubes were set up for each sample, two for (−), two for (+). Different sample and solutions were added in each tube as follows (i) 0.2 ml RRA buffer (50 mM Tris, 20 mM MgCl2, 0.1% BSA, pH 7.4); (ii) 0.1 ml membrane (1/2 or 1/4 dilution); (iii) 0.1 ml bGH (10 μg/ml) for the (+) tube or 0.1 ml RRA buffer for the (−) tube; and (iv) 0.1 ml [^125I]-hGH tracer.
# Samples were incubated at 4° C. with shaking overnight. The reaction was stopped with 2.5 ml of cold RRA, and the sample centrifuged at 2800 rpm for 25 min at 4° C. Supernatant was aspirated and pellets counted using the γ-counter. The specific binding capacity was calculated as: CPM(−)-CPM(+) Protein content of the microsomal samples was determined by the BCA protein assay.
# serum IGF-I [2] = experiment: Serum IGF-I, two-week mouse study; assay type: in vivo; conditions: for % decrease relative to 3 mg/kg ISIS 261303: day 14
# Protocol: (§1) A two-week study was done in similar fashion to the one-week study in Example 18, this time using ISIS 227446 at doses of 3, 5, 10, 20 and 30 mg/kg. The mismatch control was given at the same doses. Mice were treated with antisense compound or saline every other day for 14 days.
# P-values were determined by t-test.
# [3] = test system: growth hormone receptor mRNA; experiment: Growth hormone receptor mRNA levels in liver, two-week mouse study; assay type: in vivo; conditions: 30 mg/kg
# Protocol: as §1
# Growth hormone receptor mRNA levels in liver tissue samples from treated and untreated mice in this two-week study were assayed. The growth hormone receptor antisense inhibitor ISIS 227446 reduced growth hormone receptor mRNA levels in liver after the two-week study by 50% at the 20 mg/kg dose relative to saline control (p<0.001). The 30 mg/kg dose of ISIS 227446 yielded a 53% decrease in growth hormone receptor mRNA (p<0.0001). The mismatch control oligonucleotide ISIS 261303 (SEQ ID NO: 267), at 30 mg/kg, reduced growth hormone receptor mRNA levels by approximately 3%.
# [4] = test system: serum insulin-like growth factor-I; experiment: Serum IGF-I by radioimmunoassay, 1 week pilot study in Balb/C(a) mice; assay type: in vivo, mouse
# [5] = test system: serum insulin-like growth factor-I; conditions: patients with acromegaly; cited from earlier work
# sIGF-1 = conditions: cited from earlier work
# serum IGF-I [6] = conditions: high doses, 12 week study, cited from earlier work
# [7] = 30 mg/kg every second day for one week, liver membranes
substance,measurement,setting,value
"ISIS 261303: negative control oligonucleotide, SEQ ID NO: 267, 8-base mismatch to ISIS 227446 (AGAGAGCTACCTAACTAACA; chemistry not given here) [reference compound]",% IGF-I reduction,[1],21%
same,% IGF-I reduction,[1]; listed as Mismatch,20.98%
same,IGF-I (ng/ml) Day 7,"[1]; 30 mg/kg sc once every 2 days (days 0, 2, 4, 6)",81.1 ± 19.16 ng/mL
same,IGF-I (ng/ml) Day −2,[1]; pre-treatment value of the group given 30 mg/kg sc once every 2 days,184.87 ± 55.6 ng/mL
same,Specific binding/mg protein (cpm) ¼ dilution,growth hormone receptor; [7],8431 ± 2663 cpm
same,Specific binding/mg protein (cpm) ½ dilution,growth hormone receptor; [7],7090 ± 1877 cpm
same,"growth hormone receptor levels (growth hormone binding activity), % of control (saline) group",growth hormone receptor; 30 mg/kg sc every second day for one week,no effect
same,Day 14 serum IGF-I,serum IGF-I [2]; 3 mg/kg every other day for 14 days,184 ng/mL
same,% decrease relative to 3 mg/kg ISIS 261303,serum IGF-I [2]; 3 mg/kg,0%
same,Day 14 serum IGF-I,serum IGF-I [2]; 5 mg/kg every other day for 14 days,186 ng/mL
same,% decrease relative to 3 mg/kg ISIS 261303,serum IGF-I [2]; 5 mg/kg,0%
same,Day 14 serum IGF-I,serum IGF-I [2]; 10 mg/kg every other day for 14 days,174 ng/mL
same,% decrease relative to 3 mg/kg ISIS 261303,serum IGF-I [2]; 10 mg/kg,5%
same,Day 14 serum IGF-I,serum IGF-I [2]; 20 mg/kg every other day for 14 days,164 ng/mL
same,% decrease relative to 3 mg/kg ISIS 261303,serum IGF-I [2]; 20 mg/kg,11%
same,Day 14 serum IGF-I,serum IGF-I [2]; 30 mg/kg every other day for 14 days,130 ng/mL
same,% decrease relative to 3 mg/kg ISIS 261303,serum IGF-I [2]; 30 mg/kg,29%
same,decrease in growth hormone receptor mRNA in liver,[3],approximately 3%
octreotide,effect on serum IGF-I levels at day 7,[1]; 2 doses per day at 25 μg each,no effect
same,IGF-I (ng/ml) Day 7,[4]; 25 μg twice per day,114.34 ± 41.36 ng/mL
same,IGF-I (ng/ml) Day −2,[4]; pre-treatment value of the group given 25 μg/kg twice per day,199.72 ± 44.47 ng/mL
same,patients in whom treatment is effective,[5],60-65%
same,reduction of sIGF-1,"sIGF-1; 5000 μg/day sc, maximally tolerated doses, 15 month study",51%
same,ocular disease,sIGF-1; vs placebo of 42%,27%
same,reduction of serum IGF-I,serum IGF-I [6]; 11 patients,45%
same,reduction of glomerular filtration rate relative to placebo,serum IGF-I [6],22-33%
